# Source: patent US9920089B2, “Process for producing a solid form of abiraterone acetate” (ZACH SYSTEM, priority 2013, dated 2018)
# Experiments:
# [1] = Particle size distribution by laser diffraction, dry powder method (Malvern Mastersizer 2000); assay type: physicochemical; conditions: milled dried product after spherical agglomeration
# Protocol: PSD was determined by laser diffraction-dry powder method with a Malvern Mastersizer 2000 device.
# [2] = cited from earlier work
# human cytochrome P45017α = biological target: T1, human cytochrome P45017α (Homo sapiens, UniProt P05093); conditions: qualitative statement; cited from earlier work
# T1 sequence (P05093 1-508): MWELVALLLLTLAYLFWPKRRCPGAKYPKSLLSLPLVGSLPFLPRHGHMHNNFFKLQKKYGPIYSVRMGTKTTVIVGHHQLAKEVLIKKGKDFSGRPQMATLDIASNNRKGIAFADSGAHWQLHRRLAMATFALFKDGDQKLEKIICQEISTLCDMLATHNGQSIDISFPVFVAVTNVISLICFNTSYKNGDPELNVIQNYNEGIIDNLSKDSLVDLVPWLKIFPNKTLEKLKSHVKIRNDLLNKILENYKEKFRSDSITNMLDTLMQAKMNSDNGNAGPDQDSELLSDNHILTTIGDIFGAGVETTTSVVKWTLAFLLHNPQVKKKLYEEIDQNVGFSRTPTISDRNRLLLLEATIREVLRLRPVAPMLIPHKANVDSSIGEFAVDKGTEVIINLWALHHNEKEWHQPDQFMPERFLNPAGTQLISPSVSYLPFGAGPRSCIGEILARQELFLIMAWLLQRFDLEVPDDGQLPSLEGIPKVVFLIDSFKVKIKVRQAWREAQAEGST
Compound,Measured Particle Size Distribution D(0.5) [1],further results
"CC(=O)O[C@H]1CC[C@@]2(C)C(=CC[C@@H]3[C@@H]2CC[C@]2(C)C(c4cccnc4)=CC[C@@H]32)C1 [Example 3, abiraterone acetate]",3.7 μm,–
"CC(=O)O[C@H]1CC[C@@]2(C)C(=CC[C@@H]3[C@@H]2CC[C@]2(C)C(c4cccnc4)=CC[C@@H]32)C1 [Example 1, abiraterone acetate]",4.9 μm,–
"CC(=O)O[C@H]1CC[C@@]2(C)C(=CC[C@@H]3[C@@H]2CC[C@]2(C)C(c4cccnc4)=CC[C@@H]32)C1 [Abiraterone acetate, (3β)-17-(3-pyridinyl)-androsta-5,16-dien-3-yl acetate]",–,"Solubility in 0.1N HCl solution ([2]; 0.1N HCl solution): very slightly soluble; Solubility in aqueous media ([2]; aqueous media, pH range 2.0 to 12.9): practically insoluble; Solubility in organic solvents ([2]; organic solvents): soluble to freely soluble"
"CC(=O)O[C@H]1CC[C@@]2(C)C(=CC[C@@H]3[C@@H]2CC[C@]2(C)C(c4cccnc4)=CC[C@@H]32)C1 [Example 2, abiraterone acetate]",10.7 μm,–
"C[C@]12CC[C@H](O)CC1=CC[C@@H]1[C@@H]2CC[C@]2(C)C(c3cccnc3)=CC[C@@H]12 [Abiraterone, 17-(3-pyridyl)-androsta-5,16-dien-3β-ol]",–,Inhibition of human cytochrome P45017α (human cytochrome P45017α): potent inhibitor
"CC(=O)O[C@H]1CC[C@@]2(C)C(=CC[C@@H]3[C@@H]2CC[C@]2(C)C(c4cccnc4)=CC[C@@H]32)C1 [Example 4, abiraterone acetate]",6.5 μm,–
